Data reported in patent US8846024B2, “3′-[(2Z)-[1-(3,4-dimethylphenyl)-1,5-dihydro-3-methyl-5-oxo-4H-pyrazol-4-ylidene]hydrazino]-2′-hydroxy-[1,1′-biphenyl]-3-carboxylic acid bis-(monoethanolamine)” (GlaxoSmithKline LLC, priority 2002, dated 2014).
Converted amounts (≈) assume the structure as drawn. Where two headings read alike, the source gives them in different places.

Key:
[1] = Relative solubilities in water, 0.1% HCl and methanol; format: physicochemical; conditions: 25 °C, 25 deg
Method: The solubility of 3′-[(2Z)-[1-(3,4-dimethylphenyl)-1,5-dihydro-3-methyl-5-oxo-4H-pyrazol-4-ylidene]hydrazino]-2′-hydroxy-[1,1′-biphenyl]-3-carboxylic acid as the free acid (Compound A) and as the bis-(monoethanolamine) salt (Compound B) was determined in three different systems: water, 0.1 HCl and methanol.

[2] = Solubility of the free acid in water (stated in description); format: physicochemical; conditions: stated as approximate in the description
[3] = organic solvent or mixture, solvent methanol, read-out: Solubility at 25 deg, methanol
[4] = simulated gastric fluid, solvent 0.1% HCl, read-out: Solubility at 25 deg, 0.1% HCl
[5] = solvent water, read-out: Solubility at 25 deg, Water

Structure (SMILES)	solubility [1, 3]	solubility [1, 4]	solubility [1, 5]	solubility in water [2]
CC1=NN(c2ccc(C)c(C)c2)C(=O)/C1=N\Nc1cccc(-c2cccc(C(=O)O)c2)c1O [Compound A, 3′-[(2Z)-[1-(3,4-dimethylphenyl)-1,5-dihydro-3-methyl-5-oxo-4H-pyrazol-4-ylidene]hydrazino]-2′-hydroxy-[1,1′-biphenyl]-3-carboxylic acid]	1900 µg/mL (≈ 4290 µM)	< 1 µg/mL	< 1 µg/mL	approximately 5 micrograms per milliliter
CC1=NN(c2ccc(C)c(C)c2)C(=O)/C1=N\Nc1cccc(-c2cccc(C(=O)O)c2)c1O.NCCO.NCCO [Compound B, 3′-[(2Z)-[1-(3,4-dimethylphenyl)-1,5-dihydro-3-methyl-5-oxo-4H-pyrazol-4-ylidene]hydrazino]-2′-hydroxy-[1,1′-biphenyl]-3-carboxylic acid bis-(monoethanolamine)]	6400 µg/mL	< 1 µg/mL	14200 µg/mL	–
